Results published in patent US11007155B2, “Method for producing a sea urchin extract enriched with 1,4-polyhydroxylated naphthoquinones with antimicrobial and antioxidant activity” (Universidad Técnica Federico Santa María, priority 2016, dated 2021).
Converted amounts (≈) assume the structure as drawn. Like-named read-outs stand apart in the source and are kept apart here.

Key:
[1] = DPPH radical capture assay (antioxidant activity)
Source text: The antioxidant activity of EqA is dependent on the concentration of the pigment, the pH and the concentration of calcium. In the absence of calcium, the antioxidant activity is observed only at alkaline pH, but in the presence of calcium, the antioxidant activity is observed at alkaline pH and neutral pH, by the formation of stable semiquinone-calcium complexes (Levedeb et al., Archives of Biochemistry and Biophysics (2003) 413: 191-198). The invention is illustrated in the following examples:
The antioxidant activity of the purified extract and equinochrome A was evaluated by the DPPH radical capture assay (2, 2-diphenyl-1-picryihydracil) (Shankarlal et al., (2011) Am-Euras, J. Sci. Res. 6:178-181).

E. coli = assay: Antibacterial activity (MIC) against clinical isolates; format: cell-based; conditions: Escherichia coli
Source text: (§1) In order to test the antibiotic activity of these compounds, the inventors studied the antibacterial activity, measured as minimum inhibitory concentration (MIC), of the black sea urchin (Tetrapygus niger) extract enriched in equinochrome A (85% purity) and the purified EqA.

Klebsiella oxytica = assay: as above; format: cell-based; conditions: resistant to ampicillin
Source text: as §1

Klebsiella pneumoniae = assay: as above; format: cell-based; conditions: resistant to ampicillin, aztreonam, cephalothin, cefepime, cefotaxime, ceftazidime
Source text: as §1

Pseudomona aeruginosa = assay: as above; format: cell-based
Source text: as §1

S. aureus = assay: as above; format: cell-based; conditions: Staphylococcus aureus, resistant to penicillin
Source text: as §1

[2] = Storage stability of the product; format: physicochemical; conditions: stored at −20° C
Source text: The process of the invention begins with spawning, which is induced by injection of KCl (0.5 M) into the perivisceral coelom. The induced urchin females are deposited on a smaller diameter vessel, which contains filtered and sterile seawater, where the eggs are received. The collected eggs are filtered, preferably using a fine sieve of pore size 1/32 inches (0.079375 centimeters) to remove impurities. Afterwards it is washed with filtered and sterile seawater. The excess water is subsequently removed by decanting the eggs. Then the eggs are dried at 60-80° C. for 24-72 hours, and are ground to a fine powder, which is cleaned by passing through a sieve of pore size 1/120 inches (0.021 centimeters). The product is then extracted by mixing the powder with methanol or ethanol at a proportion of 1:30 v/v under constant agitation. It is further filtered to remove the egg debris and evaporated under vacuum at 55° C. to 1/10 of the initial volume. The resulting extract is purified by chromatography with a C18 RP column, elution with 30-40% methanol to extract mainly spinochrome E, and finally an elution with 100% ethanol for the extraction of EqA.

## Cc1c(C)c2c(c(C)c1O)CC[C@@](C)(CCC[C@H](C)CCC[C@H](C)CCCC(C)C)O2 [α-tocoferol, reference compound]
[1]
  EC50: 100 µM

## CCc1c(O)c(O)c2c(c1O)C(=O)C(O)=C(O)C2=O [EqA, 6-ethyl-2,3,5,7,8-pentahydroxy-1,4-naphthoquinone]
E. coli; pH 5, pH 5, hemocultivo isolate, antibiotic resistance —
  MIC: 32 µg/mL (≈ 120 µM)
E. coli; pH 5, pH 5, hemocultivo isolate, resistant to ampicillin, chloramphenicol, cotrimoxazole
  MIC: 32 µg/mL (≈ 120 µM)
E. coli; pH 5, pH 5, urine isolate, resistant to ampicillin, aztreonam, cefepime, cefotaxime, ceftazidime, ciprofloxacin
  MIC: 32 µg/mL (≈ 120 µM)
E. coli; pH 7, pH 7, hemocultivo isolate, antibiotic resistance —
  MIC: > 64 µg/mL
E. coli; pH 7, pH 7, hemocultivo isolate, resistant to ampicillin, chloramphenicol, cotrimoxazole
  MIC: > 64 µg/mL
E. coli; pH 7, pH 7, urine isolate, resistant to ampicillin, aztreonam, cefepime, cefotaxime, ceftazidime, ciprofloxacin
  MIC: 64 µg/mL (≈ 240 µM)
Klebsiella oxytica; pH 5, hemocultivo isolate
  MIC: 64 µg/mL (≈ 240 µM)
Klebsiella oxytica; pH 7, hemocultivo isolate
  MIC: > 64 µg/mL
Klebsiella pneumoniae; Klebsiella pneumoniae, pH 5, urine isolate, ertapenem, nitrofurantoin, read-out: MIC
  MIC: 64 µg/mL (≈ 240 µM)
Klebsiella pneumoniae; Klebsiella pneumoniae, pH 7, urine isolate, ertapenem, nitrofurantoin, read-out: MIC
  MIC: > 64 µg/mL
Klebsiella pneumoniae; pH 5, hemocultivo isolate, ciprofloxacin, chloramphenicol, colistin, cotrimoxazole, gentamicin
  MIC: 64 µg/mL (≈ 240 µM)
Klebsiella pneumoniae; pH 5, urine isolate, nitrofurantoin
  MIC: 64 µg/mL (≈ 240 µM)
Klebsiella pneumoniae; pH 7, hemocultivo isolate, ciprofloxacin, chloramphenicol, colistin, cotrimoxazole, gentamicin
  MIC: >64 µg/mL
Klebsiella pneumoniae; pH 7, urine isolate, nitrofurantoin
  MIC: >64 µg/mL
Pseudomona aeruginosa; pH 5, pH 5, aspirado traqueal isolate, resistant to ampicillin, aztreonam, cefepime, ceftazidime, imipenem, meropenem
  MIC: 32 µg/mL (≈ 120 µM)
Pseudomona aeruginosa; pH 5, pH 5, aspirado traqueal isolate, resistant to ampicillin, aztreonam, ceftazidime, imipenem, meropenem
  MIC: 64 µg/mL (≈ 240 µM)
Pseudomona aeruginosa; pH 5, pH 5, aspirado traqueal isolate, resistant to ampicillin, ciprofloxacin, imipenem, meropenem
  MIC: 32 µg/mL (≈ 120 µM)
Pseudomona aeruginosa; pH 5, pH 5, cateter isolate, resistant to ampicillin, aztreonam, cefepime, ceftazidime, imipenem, meropenem
  MIC: 32 µg/mL (≈ 120 µM)
Pseudomona aeruginosa; pH 5, pH 5, hemocultivo isolate, resistant to cefepime, ceftazidime, ciprofloxacin, gentamicin
  MIC: 32 µg/mL (≈ 120 µM)
Pseudomona aeruginosa; pH 7, pH 7, aspirado traqueal isolate, resistant to ampicillin, aztreonam, cefepime, ceftazidime, imipenem, meropenem
  MIC: > 64 µg/mL
Pseudomona aeruginosa; pH 7, pH 7, aspirado traqueal isolate, resistant to ampicillin, aztreonam, ceftazidime, imipenem, meropenem
  MIC: > 64 µg/mL
Pseudomona aeruginosa; pH 7, pH 7, aspirado traqueal isolate, resistant to ampicillin, ciprofloxacin, imipenem, meropenem
  MIC: > 64 µg/mL
Pseudomona aeruginosa; pH 7, pH 7, cateter isolate, resistant to ampicillin, aztreonam, cefepime, ceftazidime, imipenem, meropenem
  MIC: > 64 µg/mL
Pseudomona aeruginosa; pH 7, pH 7, hemocultivo isolate, resistant to cefepime, ceftazidime, ciprofloxacin, gentamicin
  MIC: > 64 µg/mL
S. aureus; pH 5, pH 5, hemocultivo isolate (1st, r13)
  MIC: 8 µg/mL (≈ 30.1 µM)
S. aureus; pH 5, pH 5, hemocultivo isolate (2nd, r14)
  MIC: 8 µg/mL (≈ 30.1 µM)
S. aureus; pH 5, pH 5, hemocultivo isolate (3rd, r15)
  MIC: 8 µg/mL (≈ 30.1 µM)
S. aureus; pH 5, pH 5, hemocultivo isolate, oxacillin, erythromycin, clindamycin, ciprofloxacin
  MIC: 32 µg/mL (≈ 120 µM)
S. aureus; pH 5, pH 5, isolate from tracheal aspirate
  MIC: 8 µg/mL (≈ 30.1 µM)
S. aureus; pH 7, pH 7, hemocultivo isolate (1st, r13)
  MIC: 32 µg/mL (≈ 120 µM)
S. aureus; pH 7, pH 7, hemocultivo isolate (2nd, r14)
  MIC: 32 µg/mL (≈ 120 µM)
S. aureus; pH 7, pH 7, hemocultivo isolate (3rd, r15)
  MIC: 32 µg/mL (≈ 120 µM)
S. aureus; pH 7, pH 7, hemocultivo isolate, oxacillin, erythromycin, clindamycin, ciprofloxacin
  MIC: 32 µg/mL (≈ 120 µM)
S. aureus; pH 7, pH 7, isolate from tracheal aspirate
  MIC: 32 µg/mL (≈ 120 µM)
[1]
  EC50: 13 µM
  antioxidant activity compared with reference antioxidants: greater than the antioxidant activities of α-tocopherol and ascorbic acid
[2]
  storage stability: high stability for months

## O=C1O[C@H]([C@@H](O)CO)C(O)=C1O [ascorbic acid, reference compound]
[1]
  EC50: 45 µM
